The target in one assay is T1, human C5a receptor (Homo sapiens, UniProt P21730).
T1 construct: endogenous in cells; host or cells: U937 cells differentiated with 1 mM dibutyryl cAMP
T1 sequence (P21730 1-350): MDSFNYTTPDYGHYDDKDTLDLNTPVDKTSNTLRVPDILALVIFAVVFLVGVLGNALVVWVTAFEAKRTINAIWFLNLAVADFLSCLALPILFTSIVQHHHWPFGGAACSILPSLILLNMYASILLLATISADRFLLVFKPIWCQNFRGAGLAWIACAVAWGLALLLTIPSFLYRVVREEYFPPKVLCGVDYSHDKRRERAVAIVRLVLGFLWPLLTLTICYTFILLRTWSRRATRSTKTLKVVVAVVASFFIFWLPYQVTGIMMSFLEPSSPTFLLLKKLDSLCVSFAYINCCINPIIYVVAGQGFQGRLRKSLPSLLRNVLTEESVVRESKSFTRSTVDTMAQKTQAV
As to the kind of experiment: C5a receptor mediated calcium mobilization assay (Example 20). As to conditions: differentiated U937 cells, read-out: Ca2+ (Ki in the standard assay of C5a receptor mediated calcium mobilization). Format: cell-based. The procedure, abridged:
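Differentiated U937 cells (dibutyryl cAMP, 48 h) loaded with Fluo-3 were pre-incubated 1 h with compound at 1 μM, then challenged with 0.3 nM (final) human recombinant C5a. Calcium response monitored by FLIPR fluorescence (Ex 480/Em 530 nm); antagonism defined as ≥2-fold decrease versus C5a alone.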
With `Cc1ccc(C)c([C@H]2c3ccccc3CCN2[C@@H](C)C(=O)N(Cc2ccccc2F)C2Cc3ccccc3C2)c1` [Compound 85, (2S)-N-(indan-2-yl)-2-[(1S)-1-(2,5-dimethylphenyl)-3,4-dihydroisoquinolin-2(1H)-yl]-N-(2-fluorobenzyl)propanamide], the Ki is less than 1000 nM.
`Cc1ccccc1[C@@H]1c2ccccc2CCN1[C@@H](C)C(=O)N(Cc1ccccc1F)C1Cc2ccccc2C1` (stereo in doubt) [Compound 34, (2S)-N-(indan-2-yl)-N-(2-fluorobenzyl)-2-[(1R)-1-(2-methylphenyl)-3,4-dihydroisoquinolin-2(1H)-yl]propanamide]: the Ki is less than 1000 nM.
Turning to `C[C@@H](C(=O)N(Cc1ccccc1F)Cc1ccccc1F)N1CCc2ccccc2[C@@H]1c1ccccc1Cl` [Compound 87, (2S)-2-[(1R)-1-(2-chlorophenyl)-3,4-dihydroisoquinolin-2(1H)-yl]-N,N-bis(2-fluorobenzyl)propanamide], the Ki is less than 1000 nM.
Turning to `O=C(CN1CCc2ccccc2C1c1c(F)cccc1F)N(Cc1ccccc1F)C1Cc2ccccc2C1` (stereo not drawn) [Compound 81, 2-[1-(2,6-difluorophenyl)-3,4-dihydroisoquinolin-2(1H)-yl]-N-(indan-2-yl)-N-(2-fluorobenzyl)acetamide], the Ki is less than 1000 nM.
Take `O=C(CN1CCc2cccc(Cl)c2C1c1c(F)cccc1Cl)N(Cc1ccccc1F)C1Cc2ccccc2C1` (stereo not drawn) [Compound 117, 2-[8-chloro-1-(2-chloro-6-fluorophenyl)-3,4-dihydroisoquinolin-2(1H)-yl]-N-(indan-2-yl)-N-(2-fluorobenzyl)acetamide]: the Ki was less than 1000 nM.
Still for that read-out and setting: in the case of `Cc1cccc(C2c3ccccc3CCN2CC(=O)N(Cc2ccccc2F)C2Cc3ccccc3C2)c1C` (stereo not drawn) [Compound 25, N-(indan-2-yl)-2-[1-(2,3-dimethylphenyl)-3,4-dihydroisoquinolin-2(1H)-yl]-N-(2-fluorobenzyl)acetamide] it was less than 1000 nM.
Regarding `Cc1ccccc1C1c2ccccc2CCN1CC(=O)N(Cc1cc(O)ccc1F)C1Cc2ccccc2C1` (stereo not drawn) [Compound 101, N-(indan-2-yl)-N-(2-fluoro-5-hydroxybenzyl)-2-[1-(2-methylphenyl)-3,4-dihydroisoquinolin-2(1H)-yl]acetamide], the Ki is less than 1000 nM.
For `COc1ccccc1C1c2ccccc2CCN1CC(=O)N(Cc1ccccc1F)C1Cc2ccccc2C1` (stereo not drawn) [Compound 24, N-(indan-2-yl)-N-(2-fluorobenzyl)-2-[1-(2-methoxyphenyl)-3,4-dihydroisoquinolin-2(1H)-yl]acetamide], the Ki was less than 1000 nM.
As to `COc1ncccc1CN(C(=O)[C@H](C)N1CCc2ccccc2[C@@H]1c1cccc2ccccc12)C1Cc2ccccc2C1` [Compound 121, (2S)-N-(indan-2-yl)-N-[(2-methoxypyridin-3-yl)methyl]-2-[(1R)-1-(1-naphthyl)-3,4-dihydroisoquinolin-2(1H)-yl]propanamide], the Ki is less than 1000 nM.
With `O=C(CN1CCc2ccccc2C12CCc1ccccc12)N(Cc1ccccc1F)C1Cc2ccccc2C1` (stereo not drawn) [Compound 45], the Ki is less than 1000 nM.
The same measure, in the same setting: the value for `O=C(CN1CCc2ccccc2[C@H]1c1ccccc1C(F)(F)F)N(Cc1ccccc1F)C1Cc2ccccc2C1` [Compound 41, N-(indan-2-yl)-N-(2-fluorobenzyl)-2-[(1S)-1-[2-(trifluoromethyl)phenyl]-3,4-dihydroisoquinolin-2(1H)-yl]acetamide] was less than 1000 nM; that for `O=C(CN1CCc2ccccc2C1c1c(Cl)cccc1Cl)N(Cc1ccccc1F)C1Cc2ccccc2C1` (stereo not drawn) [Compound 95, 2-[1-(2,6-dichlorophenyl)-3,4-dihydroisoquinolin-2(1H)-yl]-N-(indan-2-yl)-N-(2-fluorobenzyl)acetamide] was less than 1000 nM; that for `C[C@@H](C(=O)N(Cc1ccccc1F)C1Cc2ccccc2C1)N1CCc2ccccc2[C@@H]1c1c(Cl)cccc1Cl` [Compound 102, (2S)-2-[(1R)-1-(2,6-dichlorophenyl)-3,4-dihydroisoquinolin-2(1H)-yl]-N-(indan-2-yl)-N-(2-fluorobenzyl)propanamide] was less than 1000 nM.
For `O=C(CN1CCc2ccccc2C1c1cccc(F)c1F)N(Cc1ccccc1F)C1Cc2ccccc2C1` (stereo not drawn) [Compound 74, 2-[1-(2,3-difluorophenyl)-3,4-dihydroisoquinolin-2(1H)-yl]-N-(indan-2-yl)-N-(2-fluorobenzyl)acetamide], the Ki is less than 1000 nM.
Same read-out and setting: the value for `C[C@@H](C(=O)N(Cc1ccccc1O)C1Cc2ccccc2C1)N1CCc2ccccc2[C@@H]1c1ccccc1Cl` [Compound 90, (2S)-2-[(1R)-1-(2-chlorophenyl)-3,4-dihydroisoquinolin-2(1H)-yl]-N-(indan-2-yl)-N-(2-hydroxybenzyl)propanamide] was less than 1000 nM; that for `Cc1ccc(F)c(C2c3ccccc3CCN2CC(=O)N(Cc2ccccc2F)C2Cc3ccccc3C2)c1` (stereo not drawn) [Compound 66, N-(indan-2-yl)-N-(2-fluorobenzyl)-2-[1-(2-fluoro-5-methylphenyl)-3,4-dihydroisoquinolin-2(1H)-yl]acetamide] was less than 1000 nM.
With `O=C(CN1CCc2ccccc2C1c1ccccc1-c1ccccc1)N(Cc1ccccc1F)C1Cc2ccccc2C1` (stereo not drawn) [Compound 43, 2-[1-(1,1′-biphenyl-2-yl)-3,4-dihydroisoquinolin-2(1H)-yl]-N-(indan-2-yl)-N-(2-fluorobenzyl)acetamide], the Ki was less than 1000 nM.
Regarding `Cc1ccccc1C1c2ccccc2CCN1CC(=O)N(Cc1ccccc1F)c1ccccc1` (stereo not drawn) [Compound 82, N-(2-fluorobenzyl)-2-[1-(2-methylphenyl)-3,4-dihydroisoquinolin-2(1H)-yl]-N-phenylacetamide], the Ki is less than 1000 nM.
The same measure, in the same setting: the value for `O=C(CN1CCc2ccccc2C1c1cccc2c1OCC2)N(Cc1ccccc1F)C1Cc2ccccc2C1` (stereo not drawn) [Compound 53, 2-[1-(2,3-dihydro-1-benzofuran-7-yl)-3,4-dihydroisoquinolin-2(1H)-yl]-N-(indan-2-yl)-N-(2-fluorobenzyl)acetamide] was less than 1000 nM; that for `Cc1c(F)cccc1C1c2ccccc2CCN1CC(=O)N(Cc1ccccc1F)C1Cc2ccccc2C1` (stereo not drawn) [Compound 48, N-(indan-2-yl)-N-(2-fluorobenzyl)-2-[1-(3-fluoro-2-methylphenyl)-3,4-dihydroisoquinolin-2(1H)-yl]acetamide] was less than 1000 nM; that for `C[C@@H](C(=O)N(Cc1ccccc1F)C1Cc2ccccc2C1)N1CCc2ccccc2[C@@H]1c1cccc2ccccc12` [Compound 63, (2S)-N-(indan-2-yl)-N-(2-fluorobenzyl)-2-[(1R)-1-(1-naphthyl)-3,4-dihydroisoquinolin-2(1H)-yl]propanamide] was less than 1000 nM.
For `Cc1ccccc1C1c2ccccc2CCN1CC(=O)N(Cc1ccc(C(=O)O)cc1)C1Cc2ccccc2C1` (stereo not drawn) [Compound 88, 4-[(indan-2-yl{[1-(2-methylphenyl)-3,4-dihydroisoquinolin-2(1H)-yl]acetyl}amino)methyl] benzoic acid], the Ki was less than 1000 nM.
Consider `Cc1ccccc1C1c2ccccc2[C@@H](C)CN1CC(=O)N(Cc1ccccc1F)C1Cc2ccccc2C1` (stereo in doubt) [Compound 30, N-(2-Fluoro-benzyl)-N-indan-2-yl-2-(4-methyl-1-o-tolyl-3,4-dihydro-1H-isoquinolin-2-yl)-acetamide], for which the Ki was less than 1000 nM.
Still for that read-out and setting: the value for `C[C@@H](C(=O)N(Cc1cccc(C(=O)O)c1)C1Cc2ccccc2C1)N1CCc2ccccc2[C@@H]1c1ccccc1Cl` [Compound 98, 3{[{(2S)-2-[(1R)-1-(2-chlorophenyl)-3,4-dihydroisoquinolin-2(1H)-yl]propanoyl}(indan-2-yl)amino]methyl}benzoic acid] was less than 1000 nM; that for `C[C@@H](C(=O)N(Cc1ccccc1F)C1Cc2ccccc2C1)N1CCc2ccccc2[C@@H]1c1cccc2c1OCC2` [Compound 75, (2S)-2-[(1R)-1-(2,3-dihydro-1-benzofuran-7-yl)-3,4-dihydroisoquinolin-2(1H)-yl]-N-(indan-2-yl)-N-(2-fluorobenzyl)propanamide] was less than 1000 nM; that for `Cc1ccccc1C1c2c(F)cccc2CCN1CC(=O)N(Cc1ccccc1F)C1Cc2ccccc2C1` (stereo not drawn) [Compound 100, N-(indan-2-yl)-N-(2-fluorobenzyl)-2-[8-fluoro-1-(2-methylphenyl)-3,4-dihydroisoquinolin-2(1H)-yl]acetamide] was less than 1000 nM.
The same measure, in the same setting: in the case of `O=C(CN1CCc2ccccc2[C@H]1c1ccccc1Br)N(Cc1ccccc1F)C1Cc2ccccc2C1` [Compound 40, 2-[(1S)-1-(2-bromophenyl)-3,4-dihydroisoquinolin-2(1H)-yl]-N-(indan-2-yl)-N-(2-fluorobenzyl)acetamide] it was less than 1000 nM.

Still in this assay, the particulars now being: differentiated U937 cells, unit inferred, read-out: Ca2+ (numeric value, C5a receptor mediated calcium mobilization).
`COc1ccccc1C1CCCCN1CC(=O)N(Cc1ccccc1F)C1Cc2ccccc2C1` (stereo not drawn) [Compound 130, N-(2-Fluoro-benzyl)-N-indan-2-yl-2-[2-(2-methoxy-phenyl)-piperidin-1-yl]-acetamide]: the Ki worked out at 405 nM.
Regarding `CC1=C(C)C(c2ccccc2C)N(CC(=O)N(Cc2ccccc2F)C2Cc3ccccc3C2)CC1` (stereo not drawn) [Compound 135, 2-(4,5-Dimethyl-6-o-tolyl-3,6-dihydro-2H-pyridin-1-yl)-N-(2-fluoro-benzyl)-N-indan-2-yl-acetamide], the Ki came to 193 nM.
Same read-out and setting: the value for `CC1=C(C)C(c2ccccc2)N(CC(=O)N(Cc2ccccc2F)C2Cc3ccccc3C2)CC1` (stereo not drawn) [Compound 134, 2-(4,5-Dimethyl-6-phenyl-3,6-dihydro-2H-pyridin-1-yl)-N-(2-fluoro-benzyl)-N-indan-2-yl-acetamide] was 575 nM.
